Test system: 958667-338-R-J2-PDC tumor spheroids viability
Test: Anticancer human tumor 958667-338-R-J2-PDC patient-derived colon adenocarcinoma cell line growth inhibition [PI3K]
Settings: spheroids with HUVEC and MSC; for IC50: curve of first compound; for viability, T/C: stronger effect = lower value
Procedure, shortened: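 Viability of mixed-cell spheroids was determined after exposure to pairwise combinations, one partner being inavolisib, alpelisib, duvelisib or copanlisib. Highest tested concentration matched clinical Cmax where known and 10 microM where not, descending in half-log steps.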
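Also: spheroids exposed to compounds for seven days before readout.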

IC50 (second compound 0.00316 µM): 77.8 nM
IC50 (second compound 0.01 µM): 60.9 nM
IC50 (second compound 0.0316 µM): 22.8 nM
IC50 (second compound 0.1 µM): 9.88 nM
IC50 (second compound 0.316 µM): < 0.316 nM
IC50 (second compound 1 µM): < 0.316 nM
Structure (SMILES): CC(C)n1nc(-c2ccc3oc(N)nc3c2)c2c(N)ncnc21 + COc1c(OCCCN2CCOCC2)ccc2c3n(c(=NC(=O)c4cnc(N)nc4)nc12)CCN3
viability, T/C (second compound 0.00316 µM, first compound 0.000316 µM): 88.1%
viability, T/C (second compound 0.00316 µM, first compound 0.001 µM): 112%
viability, T/C (second compound 0.00316 µM, first compound 0.00316 µM): 99.2%
viability, T/C (second compound 0.00316 µM, first compound 0.01 µM): 103%
viability, T/C (second compound 0.00316 µM, first compound 0.0316 µM): 77.4%
viability, T/C (second compound 0.00316 µM, first compound 0.1 µM): 42.4%
viability, T/C (second compound 0.01 µM, first compound 0.000316 µM): 73.6%
viability, T/C (second compound 0.01 µM, first compound 0.001 µM): 70%
viability, T/C (second compound 0.01 µM, first compound 0.00316 µM): 85.2%
viability, T/C (second compound 0.01 µM, first compound 0.01 µM): 71.6%
viability, T/C (second compound 0.01 µM, first compound 0.0316 µM): 74.7%
viability, T/C (second compound 0.01 µM, first compound 0.1 µM): 31.3%
viability, T/C (second compound 0.0316 µM, first compound 0.000316 µM): 69.6%
viability, T/C (second compound 0.0316 µM, first compound 0.001 µM): 74.5%
viability, T/C (second compound 0.0316 µM, first compound 0.00316 µM): 70%
viability, T/C (second compound 0.0316 µM, first compound 0.01 µM): 58.1%
viability, T/C (second compound 0.0316 µM, first compound 0.0316 µM): 47%
viability, T/C (second compound 0.0316 µM, first compound 0.1 µM): 25.2%
viability, T/C (second compound 0.1 µM, first compound 0.000316 µM): 67.3%
viability, T/C (second compound 0.1 µM, first compound 0.001 µM): 66.1%
viability, T/C (second compound 0.1 µM, first compound 0.00316 µM): 62%
viability, T/C (second compound 0.1 µM, first compound 0.01 µM): 44.2%
viability, T/C (second compound 0.1 µM, first compound 0.0316 µM): 41%
viability, T/C (second compound 0.1 µM, first compound 0.1 µM): 21.3%
viability, T/C (second compound 0.316 µM, first compound 0.000316 µM): 41.4%
viability, T/C (second compound 0.316 µM, first compound 0.001 µM): 37%
viability, T/C (second compound 0.316 µM, first compound 0.00316 µM): 34.7%
viability, T/C (second compound 0.316 µM, first compound 0.01 µM): 33.1%
viability, T/C (second compound 0.316 µM, first compound 0.0316 µM): 25.1%
viability, T/C (second compound 0.316 µM, first compound 0.1 µM): 14.7%
viability, T/C (second compound 1 µM, first compound 0.000316 µM): 17.2%
viability, T/C (second compound 1 µM, first compound 0.001 µM): 16.5%
viability, T/C (second compound 1 µM, first compound 0.00316 µM): 13.6%
viability, T/C (second compound 1 µM, first compound 0.01 µM): 17.5%
viability, T/C (second compound 1 µM, first compound 0.0316 µM): 15.8%
viability, T/C (second compound 1 µM, first compound 0.1 µM): 11.5%

From PubChem BioAssay AID1963963 (Molecular Pharmacology Branch, DTP, NCI, 2024)
